Source: patent US20180179166A1, “SMALL MOLECULE INHIBITORS OF GP120-MEDIATED HIV INFECTION AND METHODS OF USE” (ViroCarb Inc., priority 2014, published 2018)

Target: R5 gp120 (Human immunodeficiency virus type 1 group M subtype B, UniProt P35961)
Settings: CD4/CCR5 transfected U87 cells; 20 μg/mL gp120; western blot
Method: Cell bound R5 gp120 was detected by western blot. […] Lanes 1: cells alone; Cells treated with 2: 20 μg/mL gp120; 3: 20 μg/mL gp120+20 μM adaGb Gb3; 4: 20 μg/mL gp120+50 μM ada Gb3; 5: 20 μg/mL gp120+150 μM ada Gb3; 6: 20 μg/mL gp120+5 μg/mL solCD4; 7: 20 μg/mL gp120+5 μg/mL solCD4+20 μM ada Gb3; 8: 20 μg/mL gp120+5 μg/mL solCD4+50 μM ada Gb3; 9: 20 μg/mL gp120+5 μg/mL solCD4+150 μM ada Gb3; 10: 20 μg/mL gp120+50 μM.

**Q.** With `CCCCCCCCCCCCC/C=C/[C@@H](O)[C@H](CO[C@@H]1O[C@H](CO)[C@@H](O[C@@H]2O[C@H](CO)[C@H](O[C@H]3O[C@H](CO)[C@H](O)[C@H](O)[C@H]3O)[C@H](O)[C@H]2O)[C@H](O)[C@H]1O)NC(=O)CC12CC3CC(CC(C3)C1)C2` [AdamantylGb3] as the compound, how does the “binding of R5 gp120 to CCR5 of cells after pretreatment of gp120” value read?
**A.** reduces its binding to CCR5 of cells
